The values that follow come from patent US6573262B2, “Composition and antiviral activity of substituted indoleoxoacetic piperazine derivatives” (priority 2000, dated 2003).

This test concerns HIV-1 single-round infectious reporter virus. The test can be described thus: microbe, parasite or virus in culture. In kind it is cell-based. The following applies: for EC50: Human immunodeficiency virus 1, HeLa-CD4/CCR5, 72 h, read-out: EC50 Group from Table 1; for inhibition at 10 µM: Human immunodeficiency virus 1, HeLa-CD4/CCR5, read-out: % Inhibition @ 10 uM.

With `O=C(C(=O)N1CCN(C(=O)c2ccccc2)CC1)c1c[nH]c2c(C(=O)NS(=O)(=O)c3ccccc3)cccc12` [Example 62], the EC50 (usually the concentration giving half of the maximal effect) lay in the range of 1 to 5 µM and the inhibition (commonly the change of the read-out against control, counted positive when it falls) at 10 µM worked out at 74%.

In the case of `CCOC(=O)c1cc(-c2ccc(F)c3c(C(=O)C(=O)N4CCN(C(=O)c5ccccc5)CC4)c[nH]c23)[nH]n1` [Example 86], the EC50 was under 1 µM.

On to `O=C(C(=O)N1CCN(C(=O)c2ccccc2)CC1)c1c[nH]c2c(-c3nnn(CCN4C(=O)c5ccccc5C4=O)n3)ccc(F)c12` [Example 113], for which the concentration giving a half-maximal response (EC50) was under 1 µM.

`CNC(=O)c1ccc(OC)c2c(C(=O)C(=O)N3CCN(C(=O)c4ccccc4)CC3)c[nH]c12` [Example 125]: the EC50 was under 1 µM.

`COC(=O)c1nc(-c2ccc(F)c3c(C(=O)C(=O)N4CCN(C(=O)c5ccccc5)C[C@H]4C)c[nH]c23)no1` [Example 182]: the EC50 is under 1 µM.

Consider `NC(=O)c1nc(-c2ccc(F)c3c(C(=O)C(=O)N4CCN(C(=O)c5ccccc5)CC4)c[nH]c23)no1` [Example 103], for which the EC50 is under 1 µM.

For `O=C(C(=O)N1CCN(C(=O)c2ccccn2)CC1)c1c[nH]c2c(-c3ncon3)ccc(F)c12` [Example 191], the half-maximal effective concentration (EC50) was under 1 µM.

Turning to `CC(C)(C)OC(=O)NNC(=O)c1ccc(F)c2c(C(=O)C(=O)N3CCN(C(=O)c4ccccc4)CC3)c[nH]c12` [Example 91], the concentration giving a half-maximal response (EC50) is under 1 µM.

Turning to `O=C(NC1=NCCS1)c1ccc(F)c2c(C(=O)C(=O)N3CCN(C(=O)c4ccccc4)CC3)c[nH]c12` [Example 36], the EC50 is under 1 µM and the inhibition at 10 µM is over 98%.

For the compound `O=C(C(=O)N1CCN(C(=O)c2ccccc2)CC1)c1c[nH]c2c(-c3noc(=O)[nH]3)ccc(F)c12` [Example 28], the EC50 is under 1 µM and the inhibition at 10 µM was over 98%.

As for `C[C@@H]1CN(C(=O)c2ccccc2)CCN1C(=O)C(=O)c1c[nH]c2c(C(=O)N(C)C)cccc12` [Example 65], the EC50 was under 1 µM and the inhibition at 10 µM is 70%.

Regarding `CNC(=O)c1c[nH]c(-c2ccc(F)c3c(C(=O)C(=O)N4CCN(C(=O)c5ccccc5)CC4)c[nH]c23)n1` [Example 147], the EC50 is under 1 µM.

On to `COc1nc(-c2ccc(F)c3c(C(=O)C(=O)N4CCN(C(=O)c5ccccc5)CC4)c[nH]c23)no1` [Example 29], for which the EC50 was under 1 µM and the inhibition at 10 µM was over 98%.

For the compound `O=C(C(=O)N1CCN(C(=O)c2ccccn2)CC1)c1c[nH]c2c(-c3nn[nH]n3)ccc(F)c12` [Example 32], the EC50 was under 1 µM and the inhibition at 10 µM is over 98%.

For the compound `Cc1nc(-c2ccc(F)c3c(C(=O)C(=O)N4CCN(C(=O)c5ccccc5)C[C@H]4C)c[nH]c23)no1` [Example 178], the EC50 is under 1 µM.

`C[C@@H]1CN(C(=O)c2ccccc2)CCN1C(=O)C(=O)c1c[nH]c2c(-c3nn[nH]n3)ccc(F)c12` [Example 33]: the EC50 is under 1 µM and the inhibition at 10 µM was over 98%.

In the case of `COc1ccc(-c2ccccn2)c2[nH]cc(C(=O)C(=O)N3CCN(C(=O)c4ccccc4)CC3)c12` [Example 7], the EC50 is under 1 µM and the inhibition at 10 µM was over 98%.

As to `O=C(C(=O)N1CCN(C(=O)c2ccccc2)CC1)c1c[nH]c2c(-c3nnn(CCO)n3)ccc(F)c12` [Example 112], the EC50 is under 1 µM.

As for `O=C(C(=O)N1CCN(C(=O)c2ccccc2)CC1)c1c[nH]c2c(-c3nnc(C(Cl)(Cl)Cl)o3)ccc(F)c12` [Example 193], the EC50 was under 1 µM.

For the compound `O=C(Nc1ccccn1)c1ccc(F)c2c(C(=O)C(=O)N3CCN(C(=O)c4ccccc4)CC3)c[nH]c12` [Example 38], the EC50 was under 1 µM and the inhibition at 10 µM is over 98%.

`O=C(C(=O)N1CCN(C(=O)c2ccccc2)CC1)c1c[nH]c2c(C(=O)N3CCN(C(=O)c4ccccc4)CC3)ccc(F)c12` [Example 69]: the EC50 is under 1 µM and the inhibition at 10 µM is over 98%.

As for `COc1ccc(-c2ccco2)c2[nH]cc(C(=O)C(=O)N3CCN(C(=O)c4ccccc4)CC3)c12` [Example 11], the concentration for a half-maximal effect (EC50) was under 1 µM and the inhibition at 10 µM is over 98%.

Consider `O=C(C(=O)N1CCN(C(=O)c2ccccc2)CC1)c1c[nH]c2c(-c3ccsc3)ccc(F)c12` [Example 13], for which the 50% effective concentration (EC50) was under 1 µM and the inhibition at 10 µM was over 98%.

As to `O=C(C(=O)N1CCN(C(=O)c2ccccc2)CC1)c1c[nH]c2c(-n3ccnc3)ccc(F)c12` [Example 117], the EC50 was under 1 µM.
